The supplement of paper PMC10307832

Assays:
Assay in all cases: relative viability (nuclei count vs DMSO), 5 days (fraction); higher = more cells survive
LC-2-ad = tested on: LC-2-ad
In short: (§1)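 Relative viability divides the nuclei count in treated wells by that in vehicle wells. Lung cancer cell lines were seeded in 1536-well plates, dosed by pin tool the next day, and fixed and stained after 5 days in one step with final 0.05% Triton X-100, 1% formaldehyde and 1 ug/ml Hoechst. Dosing was a single drug or a fixed anchor-drug dose plus five library-drug doses (not always all listed) in √10 steps, and values are medians of duplicate plates imaged at 4×.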

NCI-H2126 = tested on: NCI-H2126
In short: as §1

LCLC-103H = tested on: LCLC-103H
In short: as §1

NCI-H1793 = tested on: NCI-H1793
In short: as §1

NCI-H1648 = tested on: NCI-H1648
In short: as §1

NCI-H2023 = tested on: NCI-H2023
In short: as §1

NCI-H1395 = tested on: NCI-H1395
In short: as §1

SW 900 = tested on: SW 900
In short: as §1

NCI-H1651 = tested on: NCI-H1651
In short: as §1

EMC-BAC-2 = tested on: EMC-BAC-2
In short: as §1

PC-14 = tested on: PC-14
In short: as §1

H3255 = tested on: H3255
In short: as §1

RERF-LC-KJ = tested on: RERF-LC-KJ
In short: as §1

NCI-H2009 = tested on: NCI-H2009
In short: as §1

NCI-H661 = tested on: NCI-H661
In short: as §1

UMC-11 = tested on: UMC-11
In short: as §1

COR-L 105 = tested on: COR-L 105
In short: as §1

ABC-1 = tested on: ABC-1
In short: as §1

NCI-H596 = tested on: NCI-H596
In short: as §1

NCI-H1755 = tested on: NCI-H1755
In short: as §1

EKVX = tested on: EKVX
In short: as §1

NCI-H2087 = tested on: NCI-H2087
In short: as §1

`C=C1C(=O)O[C@@H](CCCCCCCC)[C@@H]1C(=O)O` [C-75] + Nc1ncn([C@H]2C[C@H](O)[C@@H](CO)O2)c(=O)n1 [Decitabine] (partner 2 µM) gave a relative viability (LC-2-ad; first compound 0.08 µM) of 0.785, a relative viability (LC-2-ad; first compound 0.253 µM) of 0.809 and a relative viability (LC-2-ad; first compound 0.8 µM) of 0.755. The relative viability (LC-2-ad; first compound 2.53 µM) was 0.771, the relative viability (LC-2-ad; first compound 8 µM) was 0.837 and the relative viability (NCI-H2126; first compound 0.08 µM) was 0.598. The relative viability (NCI-H2126; first compound 0.253 µM) was 0.617, the relative viability (NCI-H2126; first compound 0.8 µM) was 0.609 and the relative viability (NCI-H2126; first compound 2.53 µM) was 0.561. It also gave a relative viability (NCI-H2126; first compound 8 µM) of 0.534, a relative viability (LCLC-103H; first compound 0.08 µM) of 0.697 and a relative viability (LCLC-103H; first compound 0.253 µM) of 0.716. The relative viability (LCLC-103H; first compound 0.8 µM) was 0.674, the relative viability (LCLC-103H; first compound 2.53 µM) was 0.623 and the relative viability (LCLC-103H; first compound 8 µM) was 0.725. For the same compound, the relative viability (NCI-H1793; first compound 0.08 µM) was 0.485, the relative viability (NCI-H1793; first compound 0.253 µM) was 0.571 and the relative viability (NCI-H1793; first compound 2.53 µM) was 0.275. The relative viability (NCI-H1793; first compound 8 µM) was 0.449, the relative viability (NCI-H1648; first compound 0.08 µM) was 0.487 and the relative viability (NCI-H1648; first compound 0.253 µM) was 0.671. For the same compound, the relative viability (NCI-H1648; first compound 0.8 µM) was 0.473, the relative viability (NCI-H1648; first compound 8 µM) was 0.492 and the relative viability (NCI-H2023; first compound 0.08 µM) was 0.242. It also gave a relative viability (NCI-H2023; first compound 0.253 µM) of 0.22, a relative viability (NCI-H2023; first compound 0.8 µM) of 0.22 and a relative viability (NCI-H2023; first compound 8 µM) of 0.188. For the same compound, the relative viability (NCI-H1395; first compound 0.08 µM) was 0.74, the relative viability (NCI-H1395; first compound 0.253 µM) was 0.674 and the relative viability (NCI-H1395; first compound 2.53 µM) was 0.667. It also gave a relative viability (NCI-H1395; first compound 8 µM) of 0.69, a relative viability (SW 900; first compound 0.08 µM) of 0.413 and a relative viability (SW 900; first compound 0.253 µM) of 0.489. The relative viability (SW 900; first compound 0.8 µM) was 0.46, the relative viability (SW 900; first compound 2.53 µM) was 0.401 and the relative viability (SW 900; first compound 8 µM) was 0.403. It also gave a relative viability (NCI-H1651; first compound 0.08 µM) of 0.565, a relative viability (NCI-H1651; first compound 0.253 µM) of 0.685 and a relative viability (NCI-H1651; first compound 0.8 µM) of 0.559. For the same compound, the relative viability (NCI-H1651; first compound 2.53 µM) was 0.381, the relative viability (NCI-H1651; first compound 8 µM) was 0.599 and the relative viability (EMC-BAC-2; first compound 0.08 µM) was 1.02. It also gave a relative viability (EMC-BAC-2; first compound 0.253 µM) of 0.984, a relative viability (EMC-BAC-2; first compound 0.8 µM) of 0.983 and a relative viability (EMC-BAC-2; first compound 2.53 µM) of 0.834. For the same compound, the relative viability (EMC-BAC-2; first compound 8 µM) was 0.947, the relative viability (PC-14; first compound 0.08 µM) was 0.226 and the relative viability (PC-14; first compound 0.253 µM) was 0.233. It also gave a relative viability (PC-14; first compound 0.8 µM) of 0.216, a relative viability (PC-14; first compound 2.53 µM) of 0.191 and a relative viability (PC-14; first compound 8 µM) of 0.168. For the same compound, the relative viability (H3255; first compound 0.08 µM) was 0.535, the relative viability (H3255; first compound 0.253 µM) was 0.599 and the relative viability (H3255; first compound 0.8 µM) was 0.74. For the same compound, the relative viability (H3255; first compound 2.53 µM) was 0.585, the relative viability (H3255; first compound 8 µM) was 0.652 and the relative viability (RERF-LC-KJ; first compound 0.08 µM) was 0.682. The relative viability (RERF-LC-KJ; first compound 0.253 µM) was 0.848, the relative viability (RERF-LC-KJ; first compound 0.8 µM) was 0.613 and the relative viability (RERF-LC-KJ; first compound 2.53 µM) was 0.568. It also gave a relative viability (RERF-LC-KJ; first compound 8 µM) of 0.605, a relative viability (NCI-H2009; first compound 0.08 µM) of 0.37 and a relative viability (NCI-H2009; first compound 0.253 µM) of 0.393. It also gave a relative viability (NCI-H2009; first compound 0.8 µM) of 0.327, a relative viability (NCI-H2009; first compound 2.53 µM) of 0.314 and a relative viability (NCI-H2009; first compound 8 µM) of 0.338. For the same compound, the relative viability (NCI-H661; first compound 0.08 µM) was 0.545, the relative viability (NCI-H661; first compound 0.253 µM) was 0.54 and the relative viability (NCI-H661; first compound 0.8 µM) was 0.519. The relative viability (NCI-H661; first compound 2.53 µM) was 0.41, the relative viability (NCI-H661; first compound 8 µM) was 0.448 and the relative viability (UMC-11; first compound 0.08 µM) was 0.696. The relative viability (UMC-11; first compound 0.253 µM) was 0.642, the relative viability (UMC-11; first compound 0.8 µM) was 0.577 and the relative viability (UMC-11; first compound 2.53 µM) was 0.642. It also gave a relative viability (UMC-11; first compound 8 µM) of 0.434, a relative viability (COR-L 105; first compound 0.08 µM) of 0.7 and a relative viability (COR-L 105; first compound 0.253 µM) of 0.685. For the same compound, the relative viability (COR-L 105; first compound 0.8 µM) was 0.582, the relative viability (COR-L 105; first compound 2.53 µM) was 0.477 and the relative viability (COR-L 105; first compound 8 µM) was 0.606. For the same compound, the relative viability (ABC-1; first compound 0.08 µM) was 1.03, the relative viability (ABC-1; first compound 0.253 µM) was 1.18 and the relative viability (ABC-1; first compound 0.8 µM) was 1.08. It also gave a relative viability (ABC-1; first compound 2.53 µM) of 0.72, a relative viability (ABC-1; first compound 8 µM) of 0.81 and a relative viability (NCI-H596; first compound 0.08 µM) of 0.943. For the same compound, the relative viability (NCI-H596; first compound 0.253 µM) was 1.16, the relative viability (NCI-H596; first compound 0.8 µM) was 0.953 and the relative viability (NCI-H596; first compound 2.53 µM) was 1.07. For the same compound, the relative viability (NCI-H596; first compound 8 µM) was 0.96, the relative viability (NCI-H1755; first compound 0.08 µM) was 0.683 and the relative viability (NCI-H1755; first compound 0.253 µM) was 0.713. The relative viability (NCI-H1755; first compound 0.8 µM) was 0.684, the relative viability (NCI-H1755; first compound 2.53 µM) was 0.646 and the relative viability (NCI-H1755; first compound 8 µM) was 0.681. For the same compound, the relative viability (EKVX; first compound 0.08 µM) was 0.399, the relative viability (EKVX; first compound 0.253 µM) was 0.397 and the relative viability (EKVX; first compound 0.8 µM) was 0.336. For the same compound, the relative viability (EKVX; first compound 8 µM) was 0.325, the relative viability (NCI-H2087; first compound 0.08 µM) was 0.281 and the relative viability (NCI-H2087; first compound 0.253 µM) was 0.269. The relative viability (NCI-H2087; first compound 0.8 µM) was 0.35, the relative viability (NCI-H2087; first compound 2.53 µM) was 0.217 and the relative viability (NCI-H2087; first compound 8 µM) was 0.231.
